Consider four compounds from patent US5873359A, “Methods and devices for treating pulmonary vasoconstriction and asthma” (The General Hospital Corporation, priority 1994, dated 1999).

Assay [1] has as its system pulmonary hypertension in ARDS. Put plainly: Inhaled NO versus i.v. prostacyclin in adult with ARDS (first subject). The class given is in vivo, human. As for the experimental part:
First subject. The patient had suffered for three weeks from adult respiratory distress syndrome (ARDS) due to aspiration pneumonia. There was diffuse pulmonary edema and a large QVA /QT (30%). After 21 days of venovenous extracorporeal membrane oxygenator support (3 liters/min blood flow), the mean PAP was 55 mm Hg.
The short term effects of inhaled nitric oxide were compared with those of i.v. prostacyclin (PGI2; 5ng/kg/min). Mean pulmonary arterial pressure (PAP), right ventricular ejection fraction (RVEF) and gas exchange variables were evaluated. RVEF was assessed by thermodilution, and gas exchange alterations were analyzed using the multiple inert gas elimination technique (MIGET). MIGET and RVEF date were obtained on two different occasions. Ventilator settings were tidal volume 6 ml/kg, respiratory rate 14/min, Fi O2 0.4-0.48 and 5 cm H2 O of PEEP (positive end expiratory pressure).

The subject of another assay is airway resistance. The assay is described as follows: Methacholine infusion alone (stability of bronchoconstrictor model). The class given is in vivo, Hartley strain guinea pigs. The conditions noted are these: methacholine infusion (FIG. 13). As for the experimental part:
(§1) Male Hartley strain guinea pigs (300-440g body wt) were anesthetized with α-chloralose (50 mg/kg) and urethane (500 mg/kg) (Drazen et al., J. Appl. Physiol. 48:613-618, 1980). A tracheostomy was performed, and the animals were intubated with a tubing adaptor (ID 1.65 mm) and ventilated with a small animal ventilator (Harvard Apparatus, a division of Ealing Scientific, Natick, Mass.) at 8 ml/kg and 60 breaths/min. A jugular vein was cannulated for intravenous administration of drugs. The chest was opened by bilateral excision of a portion of the ribs anteriorly so that the lungs were exposed to atmospheric pressure (Shore and Drazen, J. Appl. Physiol. 67:2504-2511, 1989). A positive end expiratory pressure of 3-4 cmH2 O was provided.
(§2) Guinea pigs were then placed inside a plethysmograph (Amdur and Mead, Am. J. Physiol. 192:363-368, 1958), that was connected to a large reservoir containing copper mesh to maintain the plethysmograph isothermal. Plethysmograph pressure was measured with a differential pressure transducer (Celesco, Canoga Park, Calif.); the opposite side of this transducer was connected to a similar reservoir. Pressure at the airway opening was measured from a side tap in the tracheal canula. Transpulmonary pressure was measured with a differential pressure transducer (Celesco) as the difference between airway opening pressure and the pressure inside the plethysmograph. […]

For assay [2], the system named is persistent pulmonary hypertension of the newborn (PPHN). In kind it is in vivo, human. The conditions noted are these: standard dosage, infused, during nitric oxide. As for the experimental part:
First subject. Through compassionate use, nitric oxide was administered to an infant suffering from persistent pulmonary hypertension and congenital heart disease. As a result of prolonged ventilation, absence of a preductal arterial blood sampling site, and the existence of the atrial-ventricular (AV) canal, the patient was not included in the PPHN study mentioned above.
The patient was a 3225 gm, full term person who had been treated with extracorporeal membrane oxygenation (ECMO) because of the severity of their congenital heart disease and profound hypoxemia. They had been taken off ECMO and was being maintained intubated and ventilated in the newborn intensive care unit. They subsequently became progressively hypoxemic, as reflected in their post-ductal pulse oximetry (POX) values. By the time they were taken to the catheterization laboratory to confirm the existence of the A-V canal and to determine if some emergent cardiac surgery was needed, they were receiving maximal medical and ventilatory life support and remained dangerously hypoxemic. Under these circumstances, we were granted consent to treat the patient with nitric oxide.
Upon arrival to the catheterization laboratory, the patient was extremely cyanotic. They were treated with fentanyl, oxygen, hyperventilation and intravenous fluid boluses to stabilize them prior to administering NO.
We utilized a regulator to step-down the pressure of the NO into a blender, which allowed us to adjust the relative amounts of the 800 ppm NO/N2 and 100% N2 supplies. Treating the patient with pure oxygen, we increased the flow of N2 through a flow regulator into the inspiratory circuit of the breathing cicuit until the FI O2 was 0.9. This provided a 1:10 dilution of the nitrogen gas. We then used the blender to adjust the relative amounts of N2 and […] to provide 0 to 80 ppm of NO.

Assay [3] deals with methacholine bronchoconstriction. The assay is described as follows: NO and terbutaline aerosol during methacholine infusion. The class given is in vivo, Hartley strain guinea pigs. The conditions noted are these: NO gas before or after inhaled terbutaline. As for the experimental part: as §1, §2
[4] abbreviates: occasion #1, PGI2 5ng/kg/min i.v.
[5] abbreviates: occasion #2, PGI2 5ng/kg/min i.v.

Each structure is given as a SMILES string.

Turning to `CCCCC[C@H](O)/C=C/[C@@H]1[C@H]2C/C(=C/CCCC(=O)O)O[C@H]2C[C@H]1O` [PGI2, prostacyclin, reference compound], in assay [1] (PGI2, i.v.), the “QVA /QT” value stood at 57%. Also, the “PAP and RVEF” value in assay [1] (inhaled NO and i.v. PGI2, text) was “lowered PAP and improved RVEF”. In assay [1] (setting [4]), this compound yielded an MAP of 81 mm Hg, a PAP of 46 mm Hg, a PCWP of 12 mm Hg and a PaO2 of 74 torr. Besides, in assay [1] (setting [4]), the “QA /QT” value is listed as 57%, the “VD /VT” value was 51% and the “low VD /Q” value is reported as 0%. Moreover, in assay [1] (setting [5]), the MAP turned out to be 86 mm Hg, the PAP is listed as 42 mm Hg, the PCWP came to 14 mm Hg and the PaO2 stood at 81 torr. This compound returned an RVEF in assay [1] (setting [5]) of 42%.
For the compound `CC(=O)OC(C)C[N+](C)(C)C` (centres unmarked) [methacholine], the airway resistance entry in the assay with airway resistance is “stably increasing levels of airway resistance for up to one hour”.
Take `CCCCC[C@H](O)/C=C/[C@H]1[C@H](O)CC(=O)[C@@H]1CCCCCCC(=O)O` [prostaglandin E1, reference compound]: the “effect of prostaglandin infusion on need for nitric oxide” value in assay [2] is reported as “nitric oxide could not be discontinued without the return of dangerously low oxygen saturations”.
Turning to `CC(C)(C)NCC(O)c1cc(O)cc(O)c1` (centres unmarked) [terbutaline, reference compound], the “bronchodilating effects of NO plus terbutaline” value in assay [3] was “additive”.
